Source: patent US11091591B2, “Carbohydrate ligands that bind to antibodies against glycoepitopes of glycosphingolipids” (UNIVERSITÄT BASEL, priority 2015, dated 2021)
“Also recorded” adds a separate entry of the source.

Legend:
[1] = target: anti-GD1b IgG antibodies of neuropathy patient serum; assay: Competitive binding ELISA (GanglioCombi), GD1b-coated wells, patient serum IgG; design: species or system human; conditions: serum P22 (IgG), dilution 1:50; table prints GD1a (IgG)
Protocol: (§1) The synthesized carbohydrate polymers 6 (GM1a epitope), 26 (GD1b epitope), and 34 (GT1a epitope) were tested in the GanglioCombi(-Light) ELISA and/or, in case of compound 6, the anti-GM1 ELISA (all kits from Bühlmann Laboratories, Schönenbuch, Switzerland). The 96 well microtiter plates coated with purified gangliosides from bovine cauda equina were washed two times with washing buffer (300 μl/well) before adding the carbohydrate polymers in eight different concentrations, 25 μl/well. The patient sera containing anti-ganglioside IgG or IgM antibodies were added in the appropriate dilutions, 25 μl/well (2× concentrated), to obtain a total of 50 μl volume per well. […] Finally, a stop solution (0.25 M sulfuric acid) was added (100 μl/well) and the degree of colorimetric reaction was determined by absorption measurement at 450 nm with a microplate reader (Spectramax 190, Molecular Devices, California, USA).
(§2) As indicated, the synthesized carbohydrate polymers 6 (GM1a epitope), 26 (GD1b epitope), and 34 (GT1a epitope) were tested in the GanglioCombi(-Light) ELISA and/or, in case of compound 6, the anti-GM1 ELISA (all kits from Bühlmann Laboratories, Schönenbuch, Switzerland). […] After a washing step ganglioside-bound antibodies (IgM/IgG) were detected with horseradish peroxidase labeled anti-human IgM or anti-human IgG antibodies, followed by a colorimetric reaction. […]

[2] = tested on: anti-GM1a IgG antibodies of neuropathy patient sera; assay: Competitive binding ELISA (GanglioCombi/anti-GM1), GM1a-coated wells, patient sera IgG; design: species or system human
Protocol: as §1, §2

[3] = tested on: anti-GM1a IgM antibodies of neuropathy patient sera; assay: Competitive binding ELISA (GanglioCombi/anti-GM1), GM1a-coated wells, patient sera IgM; design: species or system human
Protocol: as §1, §2

[4] = tested on: anti-GQ1b IgG antibodies of neuropathy patient sera; assay: Competitive binding ELISA (GanglioCombi), GQ1b-coated wells, patient sera IgG; design: species or system human
Protocol: The synthesized carbohydrate polymers 6 (GM1a epitope), 26 (GD1b epitope), and 34 (GT1a epitope) were tested in the GanglioCombi(-Light) ELISA and/or, in case of compound 6, the anti-GM1 ELISA (all kits from Bühlmann Laboratories, Schönenbuch, Switzerland). The 96 well microtiter plates coated with purified gangliosides from bovine cauda equina were washed two times with washing buffer (300 μl/well) before adding the carbohydrate polymers in eight different concentrations, 25 μl/well. The patient sera containing anti-ganglioside IgG or IgM antibodies were added in the appropriate dilutions, 25 μl/well (2× concentrated), to obtain a total of 50 μl volume per well. The plate was covered with a plate sealer and incubated for 2 h at 4-8° C. The wells were washed three times with wash buffer (300 μl/well) before either the anti-human IgM antibody-horseradish peroxidase conjugate or the anti-human IgG antibody-horseradish peroxidase conjugate was added (100 μl/well). The plate was incubated for 2 h at 4-8° C. […] Finally, a stop solution (0.25 M sulfuric acid) was added (100 μl/well) and the degree of colorimetric reaction was determined by absorption measurement at 450 nm with a microplate reader (Spectramax 190, Molecular Devices, California, USA).
As indicated, the synthesized carbohydrate polymers 6 (GM1a epitope), 26 (GD1b epitope), and 34 (GT1a epitope) were tested in the GanglioCombi(-Light) ELISA and/or, in case of compound 6, the anti-GM1 ELISA (all kits from Bühlmann Laboratories, Schönenbuch, Switzerland). […] After a washing step ganglioside-bound antibodies (IgM/IgG) were detected with horseradish peroxidase labeled anti-human IgM or anti-human IgG antibodies, followed by a colorimetric reaction. Successful competition of the compounds with gangliosides led to a decrease in measured OD450 nm, (optical density), because they block the binding sites of anti-ganglioside antibodies, preventing their binding to immobilized gangliosides. […] IgG and IgM antibody titers were determined for each serum in preliminary experiments. […]

[5] = tested on: mouse monoclonal anti-HNK-1 (anti-MAG) IgM antibody; assay: Competitive binding anti-MAG ELISA, MAG-coated wells
Protocol: (§3) The synthesized carbohydrate polymer 86 (HNK-1 epitope mimetic 58) was tested in the anti-MAG ELISA (kit from Bühlmann Laboratories, Schönenbuch, Switzerland). The assay protocol was performed according to the one described above for the GanglioCombi(-Light) ELISA. To determine the in vitro IC50 of polymer 86, the assay was performed with co-incubation of polymer (25 μl/well) and a mouse monoclonal anti-HNK-1 (anti-MAG) IgM antibody (25 μl/well) at a final dilution of 1:1000. To determine the in vivo efficacy of polymer 86, the assay was performed by incubation of mouse plasma diluted 1:100 (50 μl/well). Both, the mouse monoclonal anti-HNK-1 (anti-MAG) IgM and anti-HNK-1 (anti-MAG) IgM in plasma of immunized BALB/c mice (pre- and post-treatment) were detected with goat anti-mouse IgM HRP conjugate (Sigma Aldrich, A8786) diluted 1:10′000.

[6] = tested on: anti-HNK-1 (anti-MAG) IgM antibodies; assay: Immunological mouse model for anti-MAG neuropathy; format: in vivo; conditions: immunized BALB/c mice, 10 mg/kg intravenous, up to 168 h (seven days) after administration
Protocol: as §3
Six gender matched BALB/c wild type mice at the age of 6 weeks were injected subcutaneously at multiple sites on the lower back with a total of 100 μg of the glycosphingolipids SGPG and SGLPG purified from bovine cauda equina (both glycolipids contain the HNK-1 carbohydrate epitope). The isolation of glycolipids was performed according to a protocol described by Burger et al. (Journal of Immunological Methods 1991, 140, 31-36). […] Mouse plasma samples were analyzed by the above described anti-MAG ELISA.

Substance: GD1b Polymer [Compound 26]
- IC50 [1]: 313 µM

Substance: GM1a Polymer [Compound 6]
- IC50 ([2]; serum P21, GM1a (IgG), dilution 1:1'300): 0.219 µM
- IC50 ([2]; serum PP IgG Pos., GM1a (IgG), dilution 1:1'200): 28 µM
- IC50 ([3]; serum P3, GM1a (IgM), dilution 1:50): 375 nM
- IC50 ([3]; serum P4, GM1a (IgM), dilution 1:400): 0.0594 nM

Substance: GT1a Polymer [Polymer 34]
- neutralization of patient sera directed against GQ1b ([4]; sera EK-GCO 1803 (IgG) and P23 (IgG)): neutralized
- IC50 ([4]; serum EK-GCO 1803, GQ1b/GT1a (IgG), dilution 1:300): 12.5 µM
- IC50 ([4]; serum P23, GQ1b/GT1a (IgG), dilution 1:50): 348 µM

Substance: HNK-1 Polymer [Compound 86]
- inhibition of binding of mouse monoclonal anti-HNK-1 IgM to the HNK-1 epitope on MAG [5]: nanomolar concentrations
- IC50 ([5]; mouse anti-HNK-1 antibody, HNK-1 (IgM), final dilution 1:1000): 0.0513 ± 0.0442 µM
- reduction of anti-HNK-1 (anti-MAG) IgM antibody levels [6]: significantly reduced; also recorded: significant reduction
